Assay results reported in the NIST ThermoML archive (doi:10.1021/acs.jced.5b00535).
Numbers after ± are expanded uncertainties.

Conditions: 101.33 kPa, Liquid, Vibrating tube method

With `O` [water] the mass density (323.15 K) was 988.035 ± 0.053 kg/m3, the mass density (328.15 K) was 985.693 ± 0.055 kg/m3 and the mass density (333.15 K) was 983.196 ± 0.057 kg/m3. The mass density (338.15 K) was 980.551 ± 0.059 kg/m3 and the mass density (343.15 K) was 977.765 ± 0.061 kg/m3.
